Results from PubChem BioAssay AID1963963 (Molecular Pharmacology Branch, DTP, NCI, 2024).
Blank lines part the entries; values can stand above or below the compound they belong to.

Test system: 958667-338-R-J2-PDC tumor spheroids viability
Test: Anticancer human tumor 958667-338-R-J2-PDC patient-derived colon adenocarcinoma cell line growth inhibition [PI3K]
Conditions: spheroids with HUVEC and MSC; for IC50: curve of first compound; for viability, T/C: stronger effect = lower value
In short: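 Tumor cells were combined with HUVEC and MSCs into spheroids, then dosed with PI3K-inhibitor combinations over half-log ranges capped near clinical Cmax or 10 microM.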

[1] = second compound 0.00316 µM, first compound 0.0316 µM
[2] = second compound 0.00316 µM, first compound 0.1 µM
[3] = second compound 0.00316 µM, first compound 0.316 µM
[4] = second compound 0.00316 µM, first compound 1 µM
[5] = second compound 0.00316 µM, first compound 3.16 µM
[6] = second compound 0.00316 µM, first compound 10 µM
[7] = second compound 0.01 µM, first compound 0.0316 µM
[8] = second compound 0.01 µM, first compound 0.1 µM
[9] = second compound 0.01 µM, first compound 0.316 µM
[10] = second compound 0.01 µM, first compound 1 µM
[11] = second compound 0.01 µM, first compound 3.16 µM
[12] = second compound 0.01 µM, first compound 10 µM
[13] = second compound 0.0316 µM, first compound 0.0316 µM
[14] = second compound 0.0316 µM, first compound 0.1 µM
[15] = second compound 0.0316 µM, first compound 0.316 µM
[16] = second compound 0.0316 µM, first compound 1 µM
[17] = second compound 0.0316 µM, first compound 3.16 µM
[18] = second compound 0.0316 µM, first compound 10 µM
[19] = second compound 0.1 µM, first compound 0.0316 µM
[20] = second compound 0.1 µM, first compound 0.1 µM
[21] = second compound 0.1 µM, first compound 0.316 µM
[22] = second compound 0.1 µM, first compound 1 µM
[23] = second compound 0.1 µM, first compound 3.16 µM
[24] = second compound 0.1 µM, first compound 10 µM
[25] = second compound 0.316 µM, first compound 0.0316 µM
[26] = second compound 0.316 µM, first compound 0.1 µM
[27] = second compound 0.316 µM, first compound 0.316 µM
[28] = second compound 0.316 µM, first compound 1 µM
[29] = second compound 0.316 µM, first compound 3.16 µM
[30] = second compound 0.316 µM, first compound 10 µM
[31] = second compound 1 µM, first compound 0.0316 µM
[32] = second compound 1 µM, first compound 0.1 µM
[33] = second compound 1 µM, first compound 0.316 µM
[34] = second compound 1 µM, first compound 1 µM
[35] = second compound 1 µM, first compound 3.16 µM
[36] = second compound 1 µM, first compound 10 µM
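Also: spheroids exposed to compounds for seven days before readout.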

- IC50 (second compound 0.00316 µM): > 10 µM
- IC50 (second compound 0.01 µM): > 10 µM
- IC50 (second compound 0.0316 µM): > 10 µM
- IC50 (second compound 0.1 µM): 4.27 µM
- IC50 (second compound 0.316 µM): < 0.0316 µM
- IC50 (second compound 1 µM): < 0.0316 µM
SMILES: CNC(=O)c1ccc(N2C(=S)N(c3ccc(C#N)c(C(F)(F)F)c3)C(=O)C2(C)C)cc1F + COc1c(OCCCN2CCOCC2)ccc2c3n(c(=NC(=O)c4cnc(N)nc4)nc12)CCN3
- viability, T/C [1]: 95.2%
- viability, T/C [2]: 97.8%
- viability, T/C [3]: 91.4%
- viability, T/C [4]: 96.5%
- viability, T/C [5]: 109%
- viability, T/C [6]: 82.1%
- viability, T/C [7]: 81.9%
- viability, T/C [8]: 88.9%
- viability, T/C [9]: 90.1%
- viability, T/C [10]: 82.7%
- viability, T/C [11]: 105%
- viability, T/C [12]: 92%
- viability, T/C [13]: 68.5%
- viability, T/C [14]: 74.7%
- viability, T/C [15]: 74.7%
- viability, T/C [16]: 68.2%
- viability, T/C [17]: 92.7%
- viability, T/C [18]: 67.8%
- viability, T/C [19]: 54.9%
- viability, T/C [20]: 61.4%
- viability, T/C [21]: 56.2%
- viability, T/C [22]: 59.7%
- viability, T/C [23]: 50.5%
- viability, T/C [24]: 42.8%
- viability, T/C [25]: 40.9%
- viability, T/C [26]: 47.6%
- viability, T/C [27]: 38.8%
- viability, T/C [28]: 33.2%
- viability, T/C [29]: 31.5%
- viability, T/C [30]: 22.7%
- viability, T/C [31]: 19.5%
- viability, T/C [32]: 20.9%
- viability, T/C [33]: 17.4%
- viability, T/C [34]: 18.3%
- viability, T/C [35]: 16%
- viability, T/C [36]: 9.91%

- IC50 (second compound 0.00316 µM): > 10 µM
- IC50 (second compound 0.01 µM): > 10 µM
- IC50 (second compound 0.0316 µM): > 10 µM
- IC50 (second compound 0.1 µM): 7.69 µM
- IC50 (second compound 0.316 µM): < 0.0316 µM
- IC50 (second compound 1 µM): < 0.0316 µM
SMILES: CC(Cn1ccc(-c2ccc(C#N)c(Cl)c2)n1)NC(=O)c1cc(C(C)O)[nH]n1 (centres undefined) + COc1c(OCCCN2CCOCC2)ccc2c3n(c(=NC(=O)c4cnc(N)nc4)nc12)CCN3
- viability, T/C [1]: 109%
- viability, T/C [2]: 89.7%
- viability, T/C [3]: 111%
- viability, T/C [4]: 94.9%
- viability, T/C [5]: 97.7%
- viability, T/C [6]: 102%
- viability, T/C [7]: 83.1%
- viability, T/C [8]: 83.1%
- viability, T/C [9]: 85.2%
- viability, T/C [10]: 81.1%
- viability, T/C [11]: 104%
- viability, T/C [12]: 80.4%
- viability, T/C [13]: 75.3%
- viability, T/C [14]: 74.6%
- viability, T/C [15]: 62.8%
- viability, T/C [16]: 72.4%
- viability, T/C [17]: 76.7%
- viability, T/C [18]: 69.9%
- viability, T/C [19]: 49.5%
- viability, T/C [20]: 66.2%
- viability, T/C [21]: 56.2%
- viability, T/C [22]: 59.2%
- viability, T/C [23]: 58.5%
- viability, T/C [24]: 47.6%
- viability, T/C [25]: 33.6%
- viability, T/C [26]: 40.9%
- viability, T/C [27]: 37%
- viability, T/C [28]: 39.4%
- viability, T/C [29]: 37.3%
- viability, T/C [30]: 49.2%
- viability, T/C [31]: 19.5%
- viability, T/C [32]: 18.7%
- viability, T/C [33]: 20.6%
- viability, T/C [34]: 19.9%
- viability, T/C [35]: 22.5%
- viability, T/C [36]: 14.6%
